In brackets after ≈: the same amount, converted by molar mass.

By IC50 is commonly meant the midpoint of a concentration-inhibition curve.

One series relates to lung cell line (A549). The experiment in a line: in-vitro neutral red cytotoxicity assay, A549. The format is cell-based. Particulars: Homo sapiens, mean ± SD of three replicates.
Series [1] relates to cervical cell line (Ca Ski). The experiment in a line: in-vitro neutral red cytotoxicity assay, Ca Ski. The class given is cell-based. To be noted: Homo sapiens, mean ± SD of three replicates.
Protocol: (§1) In-vitro neutral red cytotoxicity assay: All cancer cell lines were purchased from the American Type Culture Collection (ATCC, USA), medium like RPMI 1640, McCOY’S 5A, Eagle Minimum Essential Medium (EMEM) from Sigma-Aldrich, USA. The supplements or antibiotics such as foetal bovine serum, penicillin/streptomycin (100 μg/mL), amphotericin B (50 μg/mL), tripsin-EDTA (100X) were purchased from PAA Lab, Austria as well as sodium pyruvate (11 mg/mL) from Sigma-Aldrich, USA. The cells were cultured in a Shel Lab water-jacketed CO2 incubator with 25 cm^3 tissue culture flasks (Nunc, Denmark), which was observed routinely under inverted microscope (Leica DMI3000 B, Germany) for any contamination and seeded into 96-well flat bottom microtiter plate (Nunc, Denmark). The extract or pure compounds were dissolved in dimethyl sulfoxide (DMSO, Molecular Biology Grade, >99.9%) from Sigma-Aldrich, USA. The 96-well microtiter plate was agitated rapidly on a microtiter plate incubator shaker (LT Biomax 500) and absorbance of eluted dye measured at 540 nm using a ELISA microplate reader (EMax microplate reader of Molecular Devices, USA). Cell lines such as MCF-7, A549, Ca Ski and HT-29 were maintained in RPMI 1640 medium, HCT 116 in McCOY’S 5A Medium, KB and MRC-5 cells in Eagle Minimum Essential Medium (EMEM). All of these media were supplemented with 10% foetal bovine serum (FBS), penicillin/streptomycin, amphotericin B and only additional sodium pyruvate in EMEM. The cells were cultured in tissue culture flask in 5% CO2 incubator kept at 37 °C in a humidified atmosphere and observed routinely under inverted microscope from any contaminations. Each fresh medium was replaced every 2 or 3 days until cell confluence was achieved and the cells were detached by using tripsin-EDTA.
Series [2] concerns nasopharyngeal epidermoid cell line (KB). The series can be described thus: in-vitro neutral red cytotoxicity assay, KB. The class given is cell-based. To be noted: Homo sapiens, mean ± SD of three replicates.
Protocol: as §1
Series [3] deals with colon cell line (HCT 116). The series can be described thus: in-vitro neutral red cytotoxicity assay, HCT 116. The class given is cell-based. To be noted: Homo sapiens, mean ± SD of three replicates.
Protocol: as §1
The test system of series [4] is non-cancer human fibroblast cell line (MRC-5). The experiment in a line: in-vitro neutral red cytotoxicity assay, MRC-5. To be noted: MRC5, read-out: IC50 values, MRC-5.
Protocol: as §1
For another series, the system named is colon cell line (HT-29). The series can be described thus: in-vitro neutral red cytotoxicity assay, HT-29. The format is cell-based. Particulars: Homo sapiens, mean ± SD of three replicates.
For series [5], the system named is hormone-dependent breast cell line (MCF-7). The experiment in a line: in-vitro neutral red cytotoxicity assay, MCF-7. The class given is cell-based. To be noted: Homo sapiens, MCF7, mean ± SD of three replicates.
Protocol: as §1
For series [6], the system named is human cancer cell lines (MCF-7, KB, A549, Ca Ski, HCT 116, HT-29). The series can be described thus: in-vitro neutral red cytotoxicity assay, panel of six cancer cell lines. The class given is cell-based.
Protocol: In-vitro neutral red cytotoxicity assay: All cancer cell lines were purchased from the American Type Culture Collection (ATCC, USA), medium like RPMI 1640, McCOY’S 5A, Eagle Minimum Essential Medium (EMEM) from Sigma-Aldrich, USA. The supplements or antibiotics such as foetal bovine serum, penicillin/streptomycin (100 μg/mL), amphotericin B (50 μg/mL), tripsin-EDTA (100X) were purchased from PAA Lab, Austria as well as sodium pyruvate (11 mg/mL) from Sigma-Aldrich, USA. The cells were cultured in a Shel Lab water-jacketed CO2 incubator with 25 cm^3 tissue culture flasks (Nunc, Denmark), which was observed routinely under inverted microscope (Leica DMI3000 B, Germany) for any contamination and seeded into 96-well flat bottom microtiter plate (Nunc, Denmark). The extract or pure compounds were dissolved in dimethyl sulfoxide (DMSO, Molecular Biology Grade, >99.9%) from Sigma-Aldrich, USA. The 96-well microtiter plate was agitated rapidly on a microtiter plate incubator shaker (LT Biomax 500) and absorbance of eluted dye measured at 540 nm using a ELISA microplate reader (EMax microplate reader of Molecular Devices, USA). Cell lines such as MCF-7, A549, Ca Ski and HT-29 were maintained in RPMI 1640 medium, HCT 116 in McCOY’S 5A Medium, KB and MRC-5 cells in Eagle Minimum Essential Medium (EMEM). […]
Series [7] relates to non-cancer human fibroblast cell line (MRC-5).
Protocol: as §1

Protocol for colon cell line (HT-29): as §1
Protocol for lung cell line (A549): as §1

For `C=C1CC[C@H]2C(C)(C)CCC[C@]2(C)[C@H]1CC=C(C=O)CC(=O)O` (stereo in doubt) [Compound 3, zerumin A], the half-inhibitory concentration (IC50) in the series with lung cell line (A549) came out at 9.2 ± 0.62 µg/mL (≈ 28.9 µM); in series [1], 14.2 ± 0.06 µg/mL (≈ 44.6 µM); in series [2], 11.7 ± 1.15 µg/mL (≈ 36.7 µM); in [3], 9.3 ± 0.5 µg/mL (≈ 29.2 µM); in series [4], 16.2 ± 0.25 µg/mL (≈ 50.9 µM); with colon cell line (HT-29), 14.9 ± 0.4 µg/mL (≈ 46.8 µM). This compound also yielded an IC50 in [5] of 8.7 ± 0.29 µg/mL (≈ 27.3 µM).

As for `C=C1CCC2C(C)(C)CCC[C@]2(C)C1C/C=C(/C=O)CC=O` (stereo partly shown) [Compound 1, (E)-labda-8(17),12-dien-15,16-dial], the IC50 with lung cell line (A549) is 19.9 ± 0.38 µg/mL (≈ 65.8 µM); in series [1], 12.1 ± 0.35 µg/mL (≈ 40 µM); in series [2], 14.5 ± 0.87 µg/mL (≈ 47.9 µM); in series [3] it was 7.6 ± 0.23 µg/mL (≈ 25.1 µM); in [4], 8.9 ± 0.49 µg/mL (≈ 29.4 µM); in the series on colon cell line (HT-29) it was 6.3 ± 0.26 µg/mL (≈ 20.8 µM). In addition, the IC50 in series [5] is 4.3 ± 1.3 µg/mL (≈ 14.2 µM).

For the compound `C=C1CCC2C(C)(C)CCC[C@]2(C)C1/C=C/C(C)=O` (stereo partly shown) [Compound 2, (E)-15,16-bisnorlabda-8(17),11-dien-13-one], the IC50 (in the series on lung cell line (A549); in series [1]; in series [2]; in series [3]; in [4]; in the series with colon cell line (HT-29)) was above 100 µg/mL in each case. In series [5], this compound returned a half-inhibitory concentration (IC50) above 100 µg/mL. Also, the “cytotoxic activity on the investigated human cancer cell lines (in words)” value in series [6] (all investigated human cancer cell lines) is given as “no cytotoxic activity”.

With `COc1cccc2c1C(=O)c1c(O)c3c(c(O)c1C2=O)C[C@@](O)(C(=O)CO)C[C@@H]3O[C@H]1C[C@H](N)[C@H](O)[C@H](C)O1` [Doxo *, Doxorubicin, reference compound], the IC50 was 0.58 ± 0.01 µg/mL (≈ 1.07 µM) in the series on lung cell line (A549); 0.18 ± 0.06 µg/mL (≈ 0.331 µM) in series [1]; 0.27 ± 0.01 µg/mL (≈ 0.497 µM) in series [2]; 0.24 ± 0.04 µg/mL (≈ 0.442 µM) in [3]; 0.4 ± 0.03 µg/mL (≈ 0.736 µM) in [4]; 0.33 ± 0.03 µg/mL (≈ 0.607 µM) in the series with colon cell line (HT-29). The IC50 in series [6] (Homo sapiens, span over the six cancer cell lines, read-out: IC50 values across all tested human cancer cell lines) was 0.05 to 0.58 µg/mL (≈ 0.092 to 1.07 µM); in series [5] it was 0.05 ± 0.01 µg/mL (≈ 0.092 µM).

With Ethyl acetate, the “effect on the normal human fibroblast cell line (in words)” value in series [7] is on record as “caused no damage”.

These data come from article PMC6264423, “Phytochemical and Cytotoxic Investigations of Curcuma mangga Rhizomes” (Molecules, 2011).
